Laboratory results reported in patent publication US20070049538A1, “METHODS FOR USING CUCURBITACIN COMPOUNDS” (SOUTH DAKOTA STATE UNIVERSITY, priority 2005, published 2007).

How the values were obtained:
[1] = test system: HepG2 cells; assay: Cucurbitacins cytotoxicity on HepG2 cells (MTT viability assay); assay type: cell-based, human
[2] = Chromatographic hydrophobicity index (CHI) by RP-HPLC in buffered acetonitrile; assay type: physicochemical; design: key: CHI = φ0 (isocratic hydrophobicity index), = A·tR + B; ACN % scale; details: for CHIACN1: buffered acetonitrile pH 7.0, Alltima C18 250 mm, Eq. (2) from isocratic φ0; for CHIACN2: buffered acetonitrile pH 7.0, Eq. (3) calibrated against published CHI
[3] = test system: HepG2 cells; assay: cells; details: for EC50: read-out: EC50 cytoprotection, Table 7, HepG2 against CCl4 toxicity, estimated
Description: Experimental conditions were standardized on silybin. […]
The ratio of IC50-to-EC50 (hereafter T/A) is also indicated in this table, which gives the margin between toxic and cytoprotective concentrations.

[4] = test system: HSC-T6 cells; assay: Serum-driven HSC-T6 proliferation, experiment 3 (24 h, proliferating cells); assay type: cell-based, rat; details: HSC-T6, 24 h, proliferating cells; read-out: Experiment 3 EC50 (A)
[5] = test system: lipid peroxidation of microsomal suspension; assay: Microsomal Lipid Peroxidation Assay; assay type: biochemical; details: at 0.1 mM, both chemical and enzymatic assays
Procedure: Cucurbitacin anti-lipid peroxidation was studied by the Microsomal Lipid Peroxidation Assay (Engineer et al., Biochemical Pharmacology 38(8): 1279-1285, 1989). Lipid peroxidation of microsomal suspension was induced both enzymatically and chemically and validated on the standard compound quercetin. […] Activity of 3 cucurbitacin analogs, B, E, and E-Me-ether was monitored at 0.1 mM indicating no inhibition in either the chemical or enzymatic assay.

Row | Compound | IC50 ([1]; Table 4, 24 h incubation, MTT) | IC50 ([1]; Table 5) | IC50 ([1]; Table 7) | CHIACN1 [2] | CHIACN2 [2] | EC50 [3] | EC50 [4] | inhibition of lipid peroxidation [5] | cytoprotection on HepG2 cells ([3]; at 6.25% of IC50, against CCl4) | cytoprotection on HepG2 cells ([3]; at 12.5% of IC50, against CCl4) | cytoprotection on HepG2 cells ([3]; at 20% of IC50, against CCl4) | cytoprotection on HepG2 cells ([3]; at 50% of IC50, against CCl4)
1 | Cucurbitacin E-Me ether | 12 ± 3 µM | 12 ± 3 µM | 12 µM | 77.84 | 86.09 | 2.4 µM | 0.08 µM | no inhibition | – | – | – | –
2 | cucurbitacin E | 15.3 µM | 15.3 ± 6.6 µM | 15.3 µM | 75.92 | 83.13 | 3.2 µM | 0.04 µM | no inhibition | 12.41 ± 0.78 | 21.72 ± 0.75 | 49.21 ± 1.73 | 80.55 ± 6.80
3 | CC(=O)OC(C)(C)/C=C/C(=O)[C@](C)(O)[C@H]1[C@H](O)C[C@@]2(C)[C@@H]3CC=C4[C@@H](C=C(O[C@@H]5O[C@H](CO)[C@@H](O)[C@H](O)[C@H]5O)C(=O)C4(C)C)[C@]3(C)C(=O)C[C@]12C [E-Gluc, cucurbitacin E glucoside] | 227 ± 15.3 µM | 227 ± 15.5 µM | 227 µM | 53.98 | 49.13 | 45.3 µM | 3.28 µM | – | −2.36 ± 1.08 | 17.96 ± 1.14 | 49.44 ± 0.29 | 33.92 ± 2.92
4 | CC(=O)OC(C)(C)/C=C/C(=O)[C@](C)(O)[C@H]1[C@H](O)C[C@@]2(C)[C@@H]3CC=C4[C@H](C[C@H](O)C(=O)C4(C)C)[C@]3(C)C(=O)C[C@]12C [B, cucurbitacin B] | 27.7 ± 9 µM | 27.7 ± 9 µM | 27.7 µM | 70.93 | 75.40 | 10.5 µM | 0.02 µM | no inhibition | 12.45 ± 1.11 | 25.25 ± 1.36 | 34.92 ± 2.76 | 60.01 ± 0.80
